# Experimental data taken from the supplement of paper PMC10307832.
# Legend:
# Assay in all cases: relative viability (nuclei count vs DMSO), 5 days (fraction); higher = more cells survive
# BAM7 + Bortezomib = compound: CCOC1=CC=CC=C1N=NC2=C(NN(C2=O)C3=NC(=CS3)C4=CC=CC=C4)C [BAM7] + CC(C)C[C@H](NC(=O)[C@H](Cc1ccccc1)NC(=O)c1cnccn1)B(O)O [Bortezomib] (partner 0.002 µM)
# Procedure, shortened: (§1)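 For relative viability, nuclei counts in treated wells were divided by those in vehicle wells. Lung cancer cell lines had been pin-tool dosed in 1536-well plates the day after seeding and cultured for 5 days, then fixed and stained in one step (final 0.05% Triton X-100, 1% formaldehyde, 1 ug/ml Hoechst) and imaged at 4×. Doses were one drug alone or a fixed anchor-drug dose plus five library-drug doses (not always all listed) in √10 steps, and values are duplicate-plate medians.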
# [1] = compound: CCn1c(-c2nonc2N)nc2c(C#CC(C)(C)O)ncc(OC[C@H]3CCCNC3)c21 + CCNC(=O)c1noc(-c2cc(C(C)C)c(O)cc2O)c1-c1ccc(CN2CCOCC2)cc1 [Luminespib] (partner 0.01 µM)
# Procedure, shortened: as §1
# [2] = compound: CCn1c(-c2nonc2N)nc2c(C#CC(C)(C)O)ncc(OC[C@H]3CCCNC3)c21 + Cc1nc(Nc2ncc(C(=O)Nc3c(C)cccc3Cl)s2)cc(N2CCN(CCO)CC2)n1 [Dasatinib] (partner 0.075 µM)
# Procedure, shortened: as §1
# BAM7 + Decitabine = compound: CCOC1=CC=CC=C1N=NC2=C(NN(C2=O)C3=NC(=CS3)C4=CC=CC=C4)C [BAM7] + Nc1ncn([C@H]2C[C@H](O)[C@@H](CO)O2)c(=O)n1 [Decitabine] (partner 2 µM)
# Procedure, shortened: as §1
Cell Line,relative viability (BAM7 + Bortezomib; first compound 0.5 µM),relative viability (BAM7 + Bortezomib; first compound 5 µM),relative viability (BAM7 + Bortezomib; first compound 15.81 µM),relative viability (BAM7 + Bortezomib; first compound 50 µM),relative viability ([1]; first compound 0.01 µM),relative viability ([1]; first compound 0.03162 µM),relative viability ([1]; first compound 0.1 µM),relative viability ([1]; first compound 0.3162 µM),relative viability ([1]; first compound 1 µM),relative viability ([2]; first compound 0.01 µM),relative viability ([2]; first compound 0.03162 µM),relative viability ([2]; first compound 0.1 µM),relative viability ([2]; first compound 0.3162 µM),relative viability ([2]; first compound 1 µM),relative viability (BAM7 + Decitabine; first compound 0.5 µM),relative viability (BAM7 + Decitabine; first compound 5 µM),relative viability (BAM7 + Decitabine; first compound 15.81 µM),relative viability (BAM7 + Decitabine; first compound 50 µM)
NCI-H1563,0.972,0.82,0.899,1.06,0.466,0.641,0.5,0.463,0.505,0.449,0.437,0.441,0.511,0.446,,,,
NCI-H1623,,,,,0.443,0.639,0.486,0.425,0.472,0.567,0.482,0.548,0.438,0.453,,,,
NCI-H1648,,,,,,,,,,,,,,,0.395,0.642,0.432,0.404
NCI-H1703,0.428,0.304,0.164,0.338,,,,,,,,,,,,,,
NCI-H1793,,,,,0.24,0.237,0.212,0.189,0.233,0.361,0.406,0.399,0.359,0.421,0.469,0.552,0.467,0.486
NCI-H1944,,,,,0.7,0.786,0.76,0.751,0.733,0.215,0.224,0.213,0.212,0.212,0.407,0.405,0.41,0.403
NCI-H2170,,,,,0.779,0.785,0.572,0.731,0.744,0.566,0.532,0.57,0.535,0.516,0.411,0.436,0.405,0.432
NCI-H2228,1.31,1.31,0.798,1.21,0.0991,0.159,0.145,0.113,0.123,0.451,0.526,0.583,0.482,0.353,,,,
NCI-H2342,,,,,0.91,0.678,0.67,0.625,0.757,0.286,0.304,0.32,0.317,0.33,0.821,0.669,0.594,0.551
SK-MES-1,,,,,0.907,0.904,0.674,0.712,0.743,0.359,0.386,0.446,0.447,0.373,0.346,0.337,0.375,0.395
SW 900,,,,,0.189,0.185,0.18,0.16,0.162,0.731,0.527,0.566,0.544,0.538,,0.465,,0.494
